# According to patent publication US20240216320A1, “COMPOSITIONS AND METHODS FOR TREATING SICKLE CELL DISEASE” (Augusta University Research Institute, Inc., priority 2019, published 2024):
# Assays:
# [1] = system: γ-globin mRNA in K562 cells; assay: γ-globin transcription by RT-qPCR in K562 cells; assay type: cell-based; settings: 48 h
# Description: Initial studies were conducted in K562 cells to determine the ability of AN-233 to induce γ-globin transcription and HbF expression. K562 cells display characteristics of erythroid cells including expression of the ε, γ and α globin genes and these cells are useful for initial drug screening and discovery of potential HbF inducers.
# K562 cells were treated with AN-233 for 48 h and globin gene transcription was analyzed by RT-qPCR. […]
# (§1) K562 cells were cultured in Iscove's Modified Dulbecco medium (IMDM) with 10% fetal bovine serum, penicillin (100 U/mL) and streptomycin (0.1 mg/mL). Drug inductions for K562 cells were conducted for 48 h and cell viability evaluated with 0.4% Trypan blue exclusion. Cell counts were performed a dual chamber apparatus and the percentage viability obtained using an Automated Cell Counter (Bio-Rad).
# Total RNA was extracted from cells using Trizol (Ambion, Carlsbad CA) and analyzed by RT-qPCR as previously published by our group. Gene-specific primers were used to quantify mRNA levels for γ-globin, β-globin and internal control glyceraldehyde-3-phosphate de-hydrogenase (GAPDH). All mRNA levels were normalized to GAPDH before analysis.
# [2] = system: HbF in K562 cells; assay: Western blot of HbF levels in K562 cells; assay type: cell-based; settings: 48 h, AN-233 dose-dependent
# Description: as §1
# (§2) Western blot analysis was performed using whole cell lysates generated with RIPA buffer (ThermoScientific, Rockford, IL) supplemented with proteinase and phosphatase inhibitor cocktails. For histone acetylation studies, nuclear lysates were prepared by suspending cells in buffer containing 20 mM HEPES, pH 7.9, 50 mM KCl, 420 mM NaCl, 0.1 mM EDTA, 1 mM DTT, 10% glycerol and protease inhibitor mixture for 30 min, followed by centrifugation. Antibodies against HbF (51-7), HbA (37-8), and Tata binding protein (TBP; N-12) were purchased from Santa Cruz Biotechnology (Dallas TX); antibodies against β-actin (A5316) and rabbit IgG (18140) were purchased from Sigma (St. Louis MO). Acetylated histone H3 (AcH3; 06-599) and AcH4 (06-866) antibodies were purchased from Millipore (Burlington, MA).
# [3] = system: intracellular heme in K562 cells; assay: QuantiChrom heme quantitation assay in K562 cells; assay type: cell-based; settings: for heme levels in control experiments: ALA 0.5 and 2.0 mM, hemin 75 μM
# Description: The total cellular heme content was determined using the QuantiChrom™ Heme Assay Kit (DIHM-250, BioAssay Systems, Hayward, CA) per the manufacturer's instructions. Briefly, 25 μL of cellular lysate was mixed with 100 μL of detection reagent. The mixture was incubated at room temperature for 5 min followed by measuring the absorbance at 400 nm on a microplate reader. The total heme concentration was calculated based on a formula provided by the manufacturer: Heme concentration=(OD^sample−OD^blank)/(OD^calibrator−OD^blank)×125× dilution factor. This value was normalized by total protein in each sample.
# [4] = system: HbF in K562 cells; assay: HbF positive cells (F-cells) by flow cytometry in K562 cells; assay type: cell-based
# Description: as §1
# (§3) To measure percent HbF positive cells (F-cells), K562 cells and erythroid precursors were fixed with 1% formaldehyde, permeabilized with ice-cold acetone:methanol (4:1 ratio) and stained with fluorescein isothiocyanate (FITC) anti-HbF antibody (ab19365, Abcam Cambridge MA) and isotype control IgG antibody (MBS524511, MyBioSource, San Diego CA) was used to detect non-specific staining. The F-cells levels and HbF protein levels measured by mean fluorescence intensity (MFI) were analyzed on an LSR-II flow cytometer (BD Biosciences, San Jose CA) and FlowJo analysis to generate quantitative data.
# [5] = system: Heme-regulated inhibitor (HRI) kinase; assay: Western blot of HRI in K562 cells; assay type: cell-based; settings: dose-dependent, maximal
# Description: as §2
# (§4) Since the biosynthesis of heme prosthetic group requires ALA as a precursor and AN-233 is hydrolyzed to BA and ALA, it was next determined whether heme levels are altered after treatments of K562 cells. Using a colorimetric quantitative assay, a 1.5-fold and 1.8-fold increase (p<0.05) in intracellular heme was observed after 0.25 mM and 0.5 mM AN-233 treatment respectively (FIG. 2A). […] Therefore, K562 cells were treated with AN-233 and phosphorylated and total HRI and eIF2αP levels were measured. […]
# [6] = system: eIF2αP (eukaryotic translation initiation factor 2α phosphorylation); assay: Western blot of eIF2αP in K562 cells; assay type: cell-based; settings: dose-dependent, maximal
# Description: as §2, §4
# [7] = system: p38 MAPK; assay: Western blot of phosphorylated p38 MAPK in K562 cells; assay type: cell-based; settings: 0.25 mM
# Description: as §2
# The second active metabolite of AN-233 hydrolysis is BA. It was previously reported that HbF induction by BA occurs through p38 MAPK activation.
# [8] = system: HbF in sickle erythroid precursors; assay: F-cells and HbF MFI by flow cytometry in sickle erythroid precursors; assay type: cell-based, human
# Description: (§5) For primary cultures, erythroid precursors were generated from peripheral blood mononuclear cells isolated from discard blood of sickle patients under an IRB exempt protocol. These cells were cultured in a two-phase liquid culture system previously published (Li, B., et al., Haematologica 103:e384-e387 (2018)).
# (§6) During phase 1, cells were grown in Iscove's Dulecco Media with 15% fetal bovine serum, 15% human AB serum, 10 ng/mL interleukin-3, 50 ng/mL stem cell factor and 2 IU/mL of erythropoietin (Peprotech, Rocky Hill NJ). Phase 2 of culture initiated on day 7 with a similar medium without stem cell factor and interleukin-3. On day 8, erythroid precursors were treated with AN-233 (0.125 mM and 0.25 mM), ethanol (EtOH; […] and 0.016%) and the positive control HU (100 μM) for 48 h and harvested for the various analyses.
# as §3
# [9] = system: HbF in sickle erythroid precursors; assay: Western blot of HbF in sickle erythroid precursors; assay type: cell-based, human
# Description: as §5, §6
# (§7) Western blot analysis was performed using whole cell lysates generated with RIPA buffer (ThermoScientific, Rockford, IL) supplemented with proteinase and phosphatase inhibitor cocktails. For histone acetylation studies, nuclear lysates were prepared by suspending cells in buffer containing 20 mM HEPES, pH 7.9, 50 mM KCl, 420 mM NaCl, 0.1 mM EDTA, 1 mM DTT, 10% glycerol and protease inhibitor mixture for 30 min, followed by centrifugation. […]
# [10] = system: HbS in sickle erythroid precursors; assay: Western blot of HbS in sickle erythroid precursors; assay type: cell-based, human; settings: 0.25 mM
# Description: as §5, §6, §7
# [11] = system: sickle erythroid precursors; assay: In vitro sickling assay under 2% oxygen; assay type: cell-based, human
# Description: In vitro sickling studies were conducted as previously published by our group (Zhu, X., et al., Blood, 131:558-562 (2018)). Briefly, after drug inductions of sickle erythroid pre-cursors for 48 h, cells were incubated in 2% oxygen overnight and then fixed with 2% formaldehyde. Erythroid morphology was evaluated microscopically and the number of sickled cells per high power field manually counted for 1000 cells, per triplicates per condition.
# [12] = system: acetylated histone H3 (AcH3); assay: Western blot of acetylated histone H3 in nuclear lysates of sickle erythroid cells; assay type: cell-based, human
# Description: as §2
# [13] = system: γ-globin promoter; assay: ChIP assay, histone acetylation in γ-globin promoter; assay type: cell-based, human; settings: for enrichment for AcH3 in the γ-globin promoter: compared to IgG control, dose-dependent
# Description: (§8) ChIP assay was performed as previously published by our group with immunoprecipitations for AcH3, AcH4 and TBP antibodies (Santa Cruz Biotechnology) and rabbit IgG as a control. Primers used to quantify in vivo chromatin modifications are as follows: locus control region DNase I hypersensitive site 2 (LCR-HS2) forward […] (SEQ ID NO:1) and reverse […] (SEQ ID NO:2), γ-globin promoter (forward CTGAAACGGTCCCTGGCTA (SEQ ID NO:3), reverse […] (SEQ ID NO:4)), and β-globin promoter (forward […] (SEQ ID NO:5), reverse […] (SEQ ID NO:6)).
# [14] = system: LCR-HS2; assay: ChIP assay, histone acetylation in LCR-HS2; assay type: cell-based, human
# Description: as §8
# [15] = system: β-globin gene promoter; assay: ChIP assay, histone acetylation in β-globin gene promoter; assay type: cell-based, human
# Description: as §8
# [16] = system: HbF in β-YAC transgenic mice; assay: HbF induction (F-cells, MFI) in β-YAC transgenic mice; assay type: in vivo, mouse
# [17] = system: β-YAC transgenic mice; assay: Toxicity, body weight, blood counts and reticulocytes in β-YAC transgenic mice
# Description: The β-YAC is a transgenic mouse model containing the full-length 81 kb human β-globin gene locus including the LCR and surrounding region. The five functional human globin genes 5′-ε-Gγ-Aγ-[…]-β-3′ are present and undergo normal developmental regulation with the γ-globin gene silenced shortly after birth. β-YAC mice (5-6 months old) were administered AN-233 suspended in water (200 or 300 mg/kg) 5 days/week for 4 weeks by intraperitoneal injection; five mice per group with 3 males and 2 females were treated. Hydroxyurea (100 mg/kg) was included as a positive control. Blood was collected by tail bleed at week 0, 2 and 4 and analyzed for automated complete blood counts with differential using a Micros 60 machine (HORIBA Medical/ABX Diagnostics). The level of F-cells and MFI were performed by flow cytometry. For reticulocyte counts, whole blood was stained with acridine orange and flow cytometry performed on an LSR-II flow cytometer (BD Biosciences).
# [18] = system: anemic C57BL mouse model; settings: cited from earlier work
# [19] = system: HbF in patients with β-thalassemia; settings: cited from earlier work
compound,measurement,setting,value
"NCC(=O)CCC(=O)O [ALA, δ-aminolevulinate]",increase in γ-globin mRNA levels,[1]; 0.125 mM,1.5 fold
same,increase in HbF by Western blot,[2],6 fold
same,heme levels in control experiments,[3],increased heme levels
"CCCC(=O)OC(C)OC(=O)CCC(=O)CN (stereo not drawn) [AN-233, 1-(butyryloxy)ethyl-5-amino-4-oxopentanoate]",increase in γ-globin mRNA levels,[1]; 0.125 mM,1.8 fold
same,increase in γ-globin mRNA levels,[1]; 0.25 mM,2.0 fold
same,F-cells,"[4]; K562 cells, 0.125 and 0.25 mM, 48 h, maximum, 10% in EtOH treated controls",19%
same,increase in intracellular heme,[3]; 0.25 mM,1.5 fold
same,increase in intracellular heme,[3]; 0.5 mM,1.8 fold
same,decrease in HRI,[5],52%
same,decrease in eIF2αP levels,[6],50%
same,increase in phosphorylated p38 MAPK,[7],1.4 fold
same,increase in F-cells,"[8]; sickle erythroid precursors, 0.125 and 0.25 mM, 48 h, maximal",2 fold
same,F-cells,"[8]; sickle erythroid precursors, 0.125 and 0.25 mM, maximal, from 16.31%",32.5%
same,increase in HbF measured by MFI,"[8]; sickle erythroid precursors, 48 h",1.5 fold
same,increase in HbF protein by Western blot,"[9]; sickle erythroid precursors, 0.25 mM",2.6 fold
same,HbS expression by Western blot,[10],without changing HbS expression
same,reduction of the percentage of sickled erythroid precursors,[11]; 2% oxygen overnight,up to 56%
same,global AcH3 levels in nuclear lysates,[12],increased global AcH3 levels
same,AcH4 levels in the γ-globin promoter,[13]; ChIP,increased
same,enrichment for AcH3 in the γ-globin promoter,[13]; first (lower) value,12 fold
same,enrichment for AcH3 in the γ-globin promoter,[13]; second (higher) value,30 fold
same,increase in AcH3 in LCR-HS2,[14],12.5 fold
same,increase in AcH4 in LCR-HS2,[14],5 fold
same,histone acetylation at the β-globin gene promoter,[15],no significant changes
same,increase in F-cells,[16]; 200 mg/kg ip,3.4 fold
same,increase in HbF measured by MFI,[16]; 200 mg/kg ip,1.4 fold
same,F-cells,"[16]; 200 mg/kg ip, from 15.46%",52.5%
same,HbF measured by MFI,"[16]; 200 mg/kg ip, from 588 units",824 units
same,increase in F-cells,[16]; 300 mg/kg ip,4.5 fold
same,increase in HbF measured by MFI,[16]; 300 mg/kg ip,1.7 fold
same,F-cells,"[16]; 300 mg/kg ip, from 13.5%",60.6%
same,HbF measured by MFI,"[16]; 300 mg/kg ip, from 447 units",760 units
same,anti-proliferative effects on erythropoiesis,"[17]; mouse, in vivo",without observing anti-proliferative effects
same,increase in reticulocytes,"[17]; β-YAC mice, 300 mg/kg ip, week 4, p=0.01",1.8 fold
same,toxicity,"[18]; anemic C57BL mice, oral, 4 weeks, up to 400 mg/kg",without toxicity
same,hemoglobin levels,"[18]; anemic C57BL mice, oral, 4 weeks",improved
same,histone acetylation in spleen tissue,[18]; tissue harvested 4 to 6 h after one oral dose,histone hyper-acetylation
"CCCC(=O)O [BA, butyric acid]",increase in γ-globin mRNA levels,[1]; 0.125 mM,3 fold
same,increase in HbF by Western blot,[2],2 fold
"NC(=O)NO [HU, hydroxyurea]",γ-globin mRNA induction,[1]; HU control,1.7 fold
same,"HbF measured by MFI, compared with AN-233","[8]; sickle erythroid precursors, HU 100 μM",comparable
same,"anti-sickling effect, compared with AN-233","[11]; 2% oxygen overnight, HU",similar
same,"blood counts (Hb, hematocrit, white blood cells, platelets)","[17]; β-YAC mice, 4-week treatment, AN-233 at both doses, HU 100 mg/kg","decreased total Hb, hematocrit, and white blood cell and platelet counts"
same,increase in reticulocytes,"[17]; β-YAC mice, HU 100 mg/kg ip, week 4, p=0.002",1.9 fold
same,body weights,"[17]; β-YAC mice, ip, 4 weeks of treatment, all groups",normal body weights were maintained
"C[S+]([O-])c1ccc(-c2nc(-c3ccncc3)c(-c3ccc(F)cc3)[nH]2)cc1 (stereo not drawn) [SB203580, reference compound]",decrease in F-cell levels,[4]; pretreatment with SB203580 10 μM followed by 0.25 mM AN-233,30%
same,effect of pretreatment on F-cells and MFI,"[8]; SB203580 pretreatment, at both AN-233 concentrations",reduced F-cells and MFI levels
same,effect on AN-233 HbF protein increase by Western blot,[9]; SB203580 treatment with 0.25 mM AN-233,inhibited
same,sickled erythroid progenitor levels after pretreatment,"[11]; SB203580 pretreatment before AN-233, 2% oxygen",higher sickled erythroid progenitor levels
CCC(C)(C)C(=O)[O-].[Na+] [sodium dimethylbutyrate],patients with HbF induction,[19],70 % of patients
hemin [reference compound],heme levels in control experiments,[3],increased heme levels
